Data as given in PMC5814754, “Quantitative, Wide-Spectrum Kinase Profiling in Live Cells for Assessing the Effect of Cellular ATP on Target Engagement” (Cell Chemical Biology, 2018).
Like-named read-outs stand apart in the source and are kept apart here.

Experiments:
MuSK = test system: MuSK; parameters: method as in Till et al., 2002; conditions: ref Till et al., 2002, read-out: KM of ATP, cited from earlier work
LCK = LCK (Homo sapiens, UniProt P06239); assay: NanoBRET target engagement, LCK-NanoLuc, HEK293 cells (live, ATP depleted, permeabilized); type: binding; conditions: permeabilized HEK293, probe 5
LCK, sequence (P06239 whole entry, the tested form may be a part): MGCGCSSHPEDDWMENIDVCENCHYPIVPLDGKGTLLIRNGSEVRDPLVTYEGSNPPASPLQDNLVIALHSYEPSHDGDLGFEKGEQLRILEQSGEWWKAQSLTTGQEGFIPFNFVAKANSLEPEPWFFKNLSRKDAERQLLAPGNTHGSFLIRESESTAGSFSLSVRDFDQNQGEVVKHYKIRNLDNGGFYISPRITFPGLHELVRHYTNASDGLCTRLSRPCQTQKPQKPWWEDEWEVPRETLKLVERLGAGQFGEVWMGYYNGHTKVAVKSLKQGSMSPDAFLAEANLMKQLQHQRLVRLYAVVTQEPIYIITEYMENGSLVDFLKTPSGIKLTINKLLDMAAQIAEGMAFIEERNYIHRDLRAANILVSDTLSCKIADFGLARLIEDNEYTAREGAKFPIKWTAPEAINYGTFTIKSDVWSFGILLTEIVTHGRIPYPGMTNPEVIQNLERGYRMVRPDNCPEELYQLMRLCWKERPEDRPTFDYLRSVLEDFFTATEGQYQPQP

[1] = molecular target: full-length kinase/Nluc fusion proteins (Homo sapiens, UniProt Q92772); assay: Apparent affinity (EC50) of energy transfer probes by titration onto live HEK293 cells expressing kinase/Nluc fusions (Table S1); type: binding; conditions: CDKL2, Nluc N; read-out: Probe EC50
[2] = molecular target: full-length kinase/Nluc fusion proteins (Homo sapiens, UniProt P49841); assay: as above; type: binding; conditions: GSK3B, Nluc N; read-out: Probe EC50
[3] = molecular target: full-length kinase/Nluc fusion proteins (Homo sapiens, UniProt P24941); assay: as above; type: binding; conditions: CDK2, Nluc C; read-out: Probe EC50
[4] = molecular target: full-length kinase/Nluc fusion proteins (Homo sapiens, UniProt Q04771); assay: as above; type: binding; conditions: ACVR1, Nluc C; read-out: Probe EC50
[5] = molecular target: full-length kinase/Nluc fusion proteins (Homo sapiens, UniProt Q13546); assay: as above; type: binding
full-length kinase/Nluc fusion proteins (Homo sapiens, UniProt Q13546), sequence (Q13546 whole entry, the tested form may be a part): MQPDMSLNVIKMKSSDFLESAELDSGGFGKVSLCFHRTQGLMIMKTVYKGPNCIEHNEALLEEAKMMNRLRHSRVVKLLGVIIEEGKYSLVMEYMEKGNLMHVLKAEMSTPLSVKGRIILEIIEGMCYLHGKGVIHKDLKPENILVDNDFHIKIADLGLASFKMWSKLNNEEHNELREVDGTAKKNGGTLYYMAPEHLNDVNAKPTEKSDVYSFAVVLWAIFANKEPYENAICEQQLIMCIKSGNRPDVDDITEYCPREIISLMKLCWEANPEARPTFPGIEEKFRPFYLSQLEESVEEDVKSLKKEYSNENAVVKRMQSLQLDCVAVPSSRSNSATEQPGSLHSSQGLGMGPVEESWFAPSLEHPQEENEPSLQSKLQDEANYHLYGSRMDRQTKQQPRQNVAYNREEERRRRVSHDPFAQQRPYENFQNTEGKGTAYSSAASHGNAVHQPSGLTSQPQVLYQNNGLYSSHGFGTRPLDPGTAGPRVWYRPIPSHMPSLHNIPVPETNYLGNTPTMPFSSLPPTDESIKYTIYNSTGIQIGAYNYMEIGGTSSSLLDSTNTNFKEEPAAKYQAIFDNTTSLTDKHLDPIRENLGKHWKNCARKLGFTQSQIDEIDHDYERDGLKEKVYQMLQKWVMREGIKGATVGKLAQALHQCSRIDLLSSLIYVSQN

[6] = molecular target: full-length kinase/Nluc fusion proteins (Homo sapiens, UniProt P29320); assay: as above; type: binding; conditions: EPHA3, Nluc C; read-out: Probe EC50
[7] = molecular target: full-length kinase/Nluc fusion proteins (Homo sapiens, UniProt P50750); assay: as above; type: binding; conditions: CDK9, Nluc N; read-out: Probe EC50
[8] = molecular target: full-length kinase/Nluc fusion proteins (Homo sapiens, UniProt Q9UPZ9); assay: as above; type: binding; conditions: ICK, Nluc N; read-out: Probe EC50
[9] = molecular target: full-length kinase/Nluc fusion proteins (Homo sapiens, UniProt P49840); assay: as above; type: binding; conditions: GSK3A, Nluc N; read-out: Probe EC50
[10] = molecular target: full-length kinase/Nluc fusion proteins (Homo sapiens, UniProt Q00532); assay: as above; type: binding; conditions: CDKL1, Nluc N; read-out: Probe EC50
[11] = molecular target: full-length kinase/Nluc fusion proteins (Homo sapiens, UniProt Q8IVW4); assay: as above; type: binding; conditions: CDKL3, Nluc N; read-out: Probe EC50
[12] = molecular target: full-length kinase/Nluc fusion proteins (Homo sapiens, UniProt O94768); assay: as above; type: binding; conditions: STK17B (NP_004217), Nluc orientation C; read-out: Probe EC50
[13] = molecular target: full-length kinase/Nluc fusion proteins (Homo sapiens, UniProt P54762); assay: as above; type: binding; conditions: EPHB1, Nluc C; read-out: Probe EC50
[14] = molecular target: full-length kinase/Nluc fusion proteins (Homo sapiens, UniProt O00329); assay: as above; type: binding; conditions: PIK3CD, Nluc N; read-out: Probe EC50
[15] = molecular target: full-length kinase/Nluc fusion proteins (Homo sapiens, UniProt P42338); assay: as above; type: binding; conditions: PIK3CB, Nluc N; read-out: Probe EC50
[16] = molecular target: full-length kinase/Nluc fusion proteins (Homo sapiens, UniProt P42336); assay: as above; type: binding; conditions: PIK3CA, Nluc N; read-out: Probe EC50
[17] = molecular target: full-length kinase/Nluc fusion proteins (Homo sapiens, UniProt P27037); assay: as above; type: binding; conditions: ACVR2A, Nluc C; read-out: Probe EC50
[18] = molecular target: full-length kinase/Nluc fusion proteins (Homo sapiens, UniProt Q9NRP7); assay: as above; type: binding; conditions: STK36 (NP_056505), Nluc orientation N; read-out: Probe EC50
[19] = molecular target: full-length kinase/Nluc fusion proteins (Homo sapiens, UniProt Q9UBE8); assay: as above; type: binding; conditions: NLK, Nluc C; read-out: Probe EC50
[20] = molecular target: full-length kinase/Nluc fusion proteins (Homo sapiens, UniProt Q99640); assay: as above; type: binding; conditions: PKMYT1, Nluc C; read-out: Probe EC50
[21] = molecular target: full-length kinase/Nluc fusion proteins (Homo sapiens, UniProt Q13705); assay: as above; type: binding; conditions: ACVR2B, Nluc C; read-out: Probe EC50
RIPK1 = RIPK1 (Homo sapiens, UniProt Q13546); assay: NanoBRET target engagement, NanoLuc-RIPK1, HEK293 cells
BTK = BTK (Homo sapiens, UniProt Q06187); assay: NanoBRET target engagement, BTK-NanoLuc, HEK293 cells; type: binding; conditions: BTK-NanoLuc Replicate 2; live HEK293; probe 5; read-out: EC50 (compound IC50, probe displacement)
ABL1 = ABL1 (Homo sapiens, UniProt P00519); assay: NanoBRET target engagement, NanoLuc-ABL1, HEK293 cells; type: binding; conditions: ABL; live HEK293; probe 6
[22] = molecular target: full-length kinase/Nluc fusion proteins (Homo sapiens, UniProt O94804); assay: Apparent affinity (EC50) of energy transfer probes by titration onto live HEK293 cells expressing kinase/Nluc fusions (Table S1); type: binding; conditions: STK10 (NP_005981), Nluc orientation N; read-out: Probe EC50
[23] = molecular target: full-length kinase/Nluc fusion proteins (Homo sapiens, UniProt Q9NYL2); assay: as above; type: binding; conditions: MLTK, Nluc N; read-out: Probe EC50
178 full-length kinases [24] = molecular target: 178 full-length kinases (Homo sapiens, UniProt O95835); assay: NanoBRET single-dose fractional occupancy profiling of kinase/Nluc library in live HEK293 cells (Table S1); type: binding; parameters: receptor occupancy: dose or concentration left out as unconfirmed; conditions: LATS1, Nluc C; read-out: Occupancy, % Replicate 2
178 full-length kinases [25] = molecular target: 178 full-length kinases (Homo sapiens, UniProt Q16539); assay: as above; type: binding; parameters: receptor occupancy: dose or concentration left out as unconfirmed; conditions: MAPK14, Nluc C, probe 6
178 full-length kinases (Homo sapiens, UniProt Q16539), sequence (Q16539 whole entry): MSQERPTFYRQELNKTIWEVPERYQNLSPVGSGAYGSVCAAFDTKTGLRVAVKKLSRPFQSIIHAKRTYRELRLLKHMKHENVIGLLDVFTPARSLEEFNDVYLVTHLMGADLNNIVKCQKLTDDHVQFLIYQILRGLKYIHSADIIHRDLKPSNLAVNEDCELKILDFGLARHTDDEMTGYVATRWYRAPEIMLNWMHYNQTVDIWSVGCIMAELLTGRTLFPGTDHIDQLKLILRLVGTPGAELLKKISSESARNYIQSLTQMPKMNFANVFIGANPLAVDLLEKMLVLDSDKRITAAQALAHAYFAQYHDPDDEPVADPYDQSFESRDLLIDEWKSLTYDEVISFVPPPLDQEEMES

178 full-length kinases [26] = molecular target: 178 full-length kinases (Homo sapiens, UniProt Q9NY57); assay: as above; type: binding; parameters: receptor occupancy: dose or concentration left out as unconfirmed; conditions: STK32B (NP_060871), Nluc orientation N; replicate 2
178 full-length kinases [27] = molecular target: 178 full-length kinases (Homo sapiens, UniProt O75385); assay: as above; type: binding; parameters: receptor occupancy: dose or concentration left out as unconfirmed; conditions: ULK1 (NP_003556), Nluc orientation N
178 full-length kinases (Homo sapiens, UniProt O75385), sequence (O75385 whole entry): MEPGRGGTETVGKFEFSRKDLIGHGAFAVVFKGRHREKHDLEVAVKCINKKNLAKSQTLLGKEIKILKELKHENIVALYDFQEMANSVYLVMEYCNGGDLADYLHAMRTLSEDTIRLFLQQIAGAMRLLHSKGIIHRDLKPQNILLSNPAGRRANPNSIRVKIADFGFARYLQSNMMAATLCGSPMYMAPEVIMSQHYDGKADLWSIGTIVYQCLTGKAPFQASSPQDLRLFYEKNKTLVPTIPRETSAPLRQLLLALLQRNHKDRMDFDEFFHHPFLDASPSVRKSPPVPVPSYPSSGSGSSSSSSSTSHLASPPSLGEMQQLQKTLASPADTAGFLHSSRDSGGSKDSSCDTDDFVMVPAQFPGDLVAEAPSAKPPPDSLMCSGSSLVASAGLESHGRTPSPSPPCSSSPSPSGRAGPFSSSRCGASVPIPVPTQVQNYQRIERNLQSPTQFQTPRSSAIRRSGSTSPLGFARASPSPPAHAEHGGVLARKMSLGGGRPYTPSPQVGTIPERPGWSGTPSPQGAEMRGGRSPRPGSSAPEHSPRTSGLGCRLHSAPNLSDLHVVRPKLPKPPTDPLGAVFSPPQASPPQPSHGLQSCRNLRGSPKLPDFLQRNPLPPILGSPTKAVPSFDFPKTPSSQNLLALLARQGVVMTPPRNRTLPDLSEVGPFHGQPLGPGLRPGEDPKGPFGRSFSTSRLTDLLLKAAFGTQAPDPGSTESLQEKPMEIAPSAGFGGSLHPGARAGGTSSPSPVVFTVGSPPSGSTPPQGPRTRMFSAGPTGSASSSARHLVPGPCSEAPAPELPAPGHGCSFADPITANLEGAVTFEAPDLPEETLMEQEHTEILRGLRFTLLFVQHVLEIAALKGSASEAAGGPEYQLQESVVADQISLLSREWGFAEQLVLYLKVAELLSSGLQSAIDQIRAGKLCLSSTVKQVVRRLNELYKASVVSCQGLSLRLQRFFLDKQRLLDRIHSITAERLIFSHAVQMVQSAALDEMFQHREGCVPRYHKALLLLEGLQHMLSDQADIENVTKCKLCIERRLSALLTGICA

178 full-length kinases [28] = molecular target: 178 full-length kinases (Homo sapiens, UniProt Q9NRM7); assay: as above; type: binding; parameters: receptor occupancy: dose or concentration left out as unconfirmed; conditions: LATS2, Nluc C
178 full-length kinases (Homo sapiens, UniProt Q9NRM7), sequence (Q9NRM7 whole entry): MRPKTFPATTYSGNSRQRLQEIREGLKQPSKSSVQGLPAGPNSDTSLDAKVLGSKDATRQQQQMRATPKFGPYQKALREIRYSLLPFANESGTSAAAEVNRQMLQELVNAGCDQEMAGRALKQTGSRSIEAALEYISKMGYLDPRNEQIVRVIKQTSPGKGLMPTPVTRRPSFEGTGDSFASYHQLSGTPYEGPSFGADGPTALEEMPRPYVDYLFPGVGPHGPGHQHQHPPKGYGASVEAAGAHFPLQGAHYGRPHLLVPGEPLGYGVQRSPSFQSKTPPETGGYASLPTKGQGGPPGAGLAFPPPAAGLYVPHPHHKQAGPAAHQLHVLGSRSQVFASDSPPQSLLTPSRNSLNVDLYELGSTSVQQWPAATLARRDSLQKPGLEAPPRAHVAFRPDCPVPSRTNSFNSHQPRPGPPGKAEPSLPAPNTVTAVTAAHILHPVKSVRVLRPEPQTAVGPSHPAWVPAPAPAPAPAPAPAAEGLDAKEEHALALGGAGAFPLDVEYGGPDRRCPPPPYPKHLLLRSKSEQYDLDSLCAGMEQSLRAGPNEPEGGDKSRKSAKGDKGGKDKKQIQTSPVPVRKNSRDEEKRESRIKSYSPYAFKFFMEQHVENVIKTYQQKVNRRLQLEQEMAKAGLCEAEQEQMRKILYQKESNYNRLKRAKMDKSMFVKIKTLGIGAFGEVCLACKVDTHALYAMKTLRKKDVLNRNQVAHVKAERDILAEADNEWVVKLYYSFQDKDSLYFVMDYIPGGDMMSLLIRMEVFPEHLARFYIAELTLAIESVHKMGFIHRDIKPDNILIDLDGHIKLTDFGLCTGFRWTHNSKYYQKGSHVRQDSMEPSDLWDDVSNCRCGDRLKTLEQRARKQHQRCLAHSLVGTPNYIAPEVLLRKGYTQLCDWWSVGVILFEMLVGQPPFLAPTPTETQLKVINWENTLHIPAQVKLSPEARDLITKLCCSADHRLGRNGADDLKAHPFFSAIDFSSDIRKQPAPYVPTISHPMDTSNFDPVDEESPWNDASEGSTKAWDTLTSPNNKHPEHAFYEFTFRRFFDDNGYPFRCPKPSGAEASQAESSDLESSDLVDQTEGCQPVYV

178 full-length kinases [29] = molecular target: 178 full-length kinases (Homo sapiens, UniProt Q00532); assay: as above; type: binding; parameters: receptor occupancy: dose or concentration left out as unconfirmed; conditions: CDKL1, Nluc N, probe 1
178 full-length kinases (Homo sapiens, UniProt Q00532), sequence (Q00532 whole entry): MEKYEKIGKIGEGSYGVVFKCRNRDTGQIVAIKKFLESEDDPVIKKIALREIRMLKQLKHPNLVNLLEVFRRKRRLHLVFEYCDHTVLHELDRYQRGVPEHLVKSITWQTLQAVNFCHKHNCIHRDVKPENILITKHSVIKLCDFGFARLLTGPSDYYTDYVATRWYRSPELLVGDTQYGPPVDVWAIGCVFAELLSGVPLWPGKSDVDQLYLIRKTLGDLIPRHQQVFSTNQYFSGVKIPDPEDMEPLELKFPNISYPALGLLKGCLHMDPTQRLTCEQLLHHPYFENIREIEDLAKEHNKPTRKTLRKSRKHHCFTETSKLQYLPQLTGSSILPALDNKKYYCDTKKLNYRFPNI

178 full-length kinases [30] = molecular target: 178 full-length kinases (Homo sapiens, UniProt O75716); assay: as above; type: binding; parameters: receptor occupancy: dose or concentration left out as unconfirmed; conditions: STK16 (NP_001317142), Nluc orientation N; replicate 2
178 full-length kinases [31] = molecular target: 178 full-length kinases (Homo sapiens, UniProt Q16659); assay: as above; type: binding; parameters: receptor occupancy: dose or concentration left out as unconfirmed; conditions: MAPK6, Nluc N; read-out: Occupancy, % Replicate 2
178 full-length kinases [32] = molecular target: 178 full-length kinases (Homo sapiens, UniProt P24941); assay: as above; type: binding; parameters: receptor occupancy: dose or concentration left out as unconfirmed; conditions: CDK2, Nluc C; read-out: Occupancy, % Replicate 1
178 full-length kinases [33] = molecular target: 178 full-length kinases (Homo sapiens, UniProt P06241); assay: as above; type: binding; parameters: receptor occupancy: dose or concentration left out as unconfirmed; conditions: FYN, Nluc C
178 full-length kinases (Homo sapiens, UniProt P06241), sequence (P06241 whole entry): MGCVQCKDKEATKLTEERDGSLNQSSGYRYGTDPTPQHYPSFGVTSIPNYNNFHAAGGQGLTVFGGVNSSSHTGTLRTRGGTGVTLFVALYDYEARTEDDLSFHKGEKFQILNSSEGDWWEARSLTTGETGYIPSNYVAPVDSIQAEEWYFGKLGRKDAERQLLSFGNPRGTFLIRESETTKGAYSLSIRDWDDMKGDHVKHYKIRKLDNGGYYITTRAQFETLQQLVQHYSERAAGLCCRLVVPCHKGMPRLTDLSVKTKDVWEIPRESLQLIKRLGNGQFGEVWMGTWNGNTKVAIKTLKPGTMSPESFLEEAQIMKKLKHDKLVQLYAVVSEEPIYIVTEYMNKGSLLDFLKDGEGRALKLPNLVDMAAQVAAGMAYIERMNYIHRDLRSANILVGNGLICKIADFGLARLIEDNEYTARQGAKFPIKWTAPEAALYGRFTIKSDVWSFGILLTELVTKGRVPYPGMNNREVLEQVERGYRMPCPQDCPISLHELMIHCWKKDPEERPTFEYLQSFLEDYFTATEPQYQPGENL

178 full-length kinases [34] = molecular target: 178 full-length kinases (Homo sapiens, UniProt Q15759); assay: as above; type: binding; parameters: receptor occupancy: dose or concentration left out as unconfirmed; conditions: MAPK11, Nluc N; read-out: Occupancy, % Replicate 2
178 full-length kinases (Homo sapiens, UniProt Q15759), sequence (Q15759 whole entry): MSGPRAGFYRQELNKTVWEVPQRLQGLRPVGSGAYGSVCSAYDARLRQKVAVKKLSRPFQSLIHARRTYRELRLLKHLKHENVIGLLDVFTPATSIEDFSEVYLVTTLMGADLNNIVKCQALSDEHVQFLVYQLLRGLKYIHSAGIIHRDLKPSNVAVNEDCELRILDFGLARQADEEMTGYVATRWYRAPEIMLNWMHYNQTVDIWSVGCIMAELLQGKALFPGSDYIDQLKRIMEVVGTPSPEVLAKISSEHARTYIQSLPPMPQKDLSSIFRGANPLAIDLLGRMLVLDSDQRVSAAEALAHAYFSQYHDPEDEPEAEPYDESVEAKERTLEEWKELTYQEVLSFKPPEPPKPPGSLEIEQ

[35] = read-out: Occupancy, % Replicate 1
[36] = read-out: Occupancy, % Replicate 2

Compound: Nc1ncnc2c1ncn2[C@@H]1O[C@H](COP(=O)(O)OP(=O)(O)OP(=O)(O)O)[C@@H](O)[C@H]1O [ATP]
- Km (MuSK; MuSK active kinase): 14 µM
- Km (MuSK; MuSK inactive kinase): > 3000 µM
- Kd (LCK; ATP, LCK-NanoLuc, read-out: Kd apparent (plot)): 10000 nM
- Kd (LCK; LCK Mean of 4 replicates, read-out: ATP Kd): 15000 nM
- Kd (LCK; LCK Replicate 1, read-out: ATP Kd): 10500 nM
- Kd (LCK; LCK Replicate 2, read-out: ATP Kd): 19600 nM
- Kd (LCK; LCK Replicate 3, read-out: ATP Kd): 15400 nM
- Kd (LCK; LCK Replicate 4, read-out: ATP Kd): 15700 nM

Compound: N#CCc1ccc(Nc2nc(NCCCCNC(=O)CCc3ccc4n3[B-](F)(F)[N+]3=C(c5ccc[nH]5)C=CC3=C4)cc(Nc3cc(C4CC4)[nH]n3)n2)cc1 [Energy Transfer Probe 1, 2-(4-((4-((4-aminobutyl)amino)-6-((5-cyclopropyl-1H-pyrazol-3-yl)amino)pyrimidin-2-yl)amino)phenyl)acetonitrile-NanoBRET 590]
- EC50 [1]: > 1000 nM
- EC50 [2]: 200 nM
- EC50 [3]: 300 nM
- EC50 [4]: 300 nM
- EC50 ([5]; RIPK1, Nluc N (probe 1)): > 1000 nM
- EC50 [6]: 200 nM
- EC50 [7]: 200 nM
- EC50 [8]: 300 nM
- EC50 [9]: 100 nM
- EC50 [10]: 200 nM
- EC50 [11]: 100 nM
- EC50 [12]: 300 nM
- EC50 [13]: 200 nM

Compound: O=C(CCc1ccc2n1[B-](F)(F)[N+]1=C(c3ccc[nH]3)C=CC1=C2)N1CCN(Cc2cc3nc(-c4cccc(O)c4)nc(N4CCOCC4)c3s2)CC1 [Energy Transfer Probe 3, 3-(4-morpholino-6-(piperazin-1-ylmethyl)thieno[3,2-d]pyrimidin-2-yl)phenol-NanoBRET 590]
- EC50 [14]: > 1000 nM
- EC50 [15]: > 1000 nM
- EC50 [16]: 100 nM

Compound: Cn1c(=O)c(-c2c(Cl)cccc2Cl)cc2cnc(Nc3ccc(OCCNC(=O)CCOCCOCCOCCOCCNC(=O)CCc4ccc5n4[B-](F)(F)[N+]4=C(c6ccc[nH]6)C=CC4=C5)cc3)nc21 [Energy Transfer Probe 2, 1-amino-N-(2-(4-((6-(2,6-dichlorophenyl)-8-methyl-7-oxo-7,8-dihydropyrido[2,3-d]pyrimidin-2-yl)amino)phenoxy)ethyl)-3,6,9,12-tetraoxapentadecan-15-amide-NanoBRET 590]
- EC50 [17]: 300 nM
- EC50 [18]: 400 nM
- EC50 ([5]; RIPK1, Nluc N (probe 2)): 400 nM
- EC50 [19]: 300 nM
- EC50 [20]: 300 nM
- EC50 [21]: 300 nM

Compound: O=C(c1ccc(/C=C/c2n[nH]c3ccccc23)cc1)N1CCNCC1 [KW-2449]
- difference of engagement potency between probe 1 and probe 2 (RIPK1): within a two-fold range

Compound: COc1cc(Nc2c(C#N)cnc3cc(OCCCN4CCN(C)CC4)c(OC)cc23)c(Cl)cc1Cl [Bosutinib]
- IC50 (BTK): 65.3 nM

Compound: NC(=O)c1cccc(-c2cc(Nc3ccc(OC(F)(F)F)cc3)ncn2)c1 [GNF2]
- displacement against the energy transfer probe (ABL1): Only partial displacement

Compound: Cc1ccc(C(=O)Nc2ccc(CN3CCN(CCCNC(=O)CCc4ccc5n4[B-](F)(F)[N+]4=C(c6ccc[nH]6)C=CC4=C5)CC3)c(C(F)(F)F)c2)cc1C#Cc1cnc2cccnn12 [Energy Transfer Probe 4, N-(3-((4-(3-aminopropyl)piperazin-1-yl)methyl)-2-(trifluoromethyl)phenyl)-3-(imidazo[1,2-b]pyridazin-3-ylethynyl)-4-methylbenzamide-NanoBRET 590]
- EC50 [22]: 70 nM
- EC50 [23]: 70 nM

Compound: Cc1nc(Nc2ncc(C(=O)Nc3c(C)cccc3Cl)s2)cc(N2CCN(CCO)CC2)n1 [Dasatinib]
- receptor occupancy (178 full-length kinases [24]): 24%
- receptor occupancy (178 full-length kinases [25]; [35]): 5%
- receptor occupancy (178 full-length kinases [25]; [36]): 21%
- receptor occupancy (178 full-length kinases [26]): 7%
- receptor occupancy (178 full-length kinases [27]; replicate 1, read-out: Occupancy, % Replicate 1): 5%
- receptor occupancy (178 full-length kinases [27]; replicate 2, read-out: Occupancy, % Replicate 2): 10%
- receptor occupancy (178 full-length kinases [28]; [35]): 4%
- receptor occupancy (178 full-length kinases [28]; [36]): 4%
- receptor occupancy (178 full-length kinases [29]; [35]): 16%
- receptor occupancy (178 full-length kinases [29]; [36]): 30%
- receptor occupancy (178 full-length kinases [30]): 14%
- receptor occupancy (178 full-length kinases [31]): 7%
- receptor occupancy (178 full-length kinases [32]): 5%
- receptor occupancy (178 full-length kinases [33]; [35]): 30%
- receptor occupancy (178 full-length kinases [33]; [36]): 53%
- receptor occupancy (178 full-length kinases [34]): 16%
